{"source": "patent US20230364254A1", "about": "“METHODS FOR TREATING CANCERS WITH ANTIBODY DRUG CONJUGATES (ADC) THAT BIND TO 191P4D12 PROTEINS” (priority 2020, published 2023)", "tested_on": "locally advanced or metastatic urothelial cancer", "assay": "Phase 2 single-arm, open-label study of enfortumab vedotin 1.25 mg/kg IV on Days 1, 8, 15 of each 28-day cycle: efficacy (confirmed ORR, DOR, PFS per RECIST 1.1 by BICR; OS)", "format": "in vivo, human", "settings": "for ORR point estimates for all subgroups: ORR subgroup analysis", "excerpt": "This is a single-arm, open-label, multicenter trial designed to assess the efficacy and safety of enfortumab vedotin as a single agent in locally advanced or metastatic urothelial cancer patients who have previously received systemic therapy with a CPI. For the purpose of this study a CPI is defined as a programmed cell death protein 1 (PD-1) inhibitor or programmed death-ligand 1 (PD-L1) inhibitor (including, but not limited to: atezolizumab, pembrolizumab, durvalumab, avelumab, and nivolumab). Patients must either have received prior treatment with platinum-containing chemotherapy (Cohort 1) or received no prior treatment with platinum-containing or other chemotherapy and are ineligible for treatment with cisplatin at time of enrollment (Cohort 2).\nEnfortumab vedotin at a dose of 1.25 mg/kg will be administered as an intravenous (IV) infusion over approximately 30 minutes on Days 1, 8, and 15 of each 28-day cycle. Patients will continue to receive study treatment until disease progression, unacceptable toxicity, investigator decision, consent withdrawal, start of a subsequent anticancer therapy, pregnancy, or study termination by the sponsor. After discontinuation of study treatment, patients will be followed every 8 weeks (1 week) for response assessments, ECOG performance status, and physical exams. After 1 year of on study, the frequency of follow-up exams including response assessments will be reduced to every 12 weeks (+1 week). Patients that have progressed or begun subsequent anticancer therapy will be contacted every 8 weeks (1 week) up to 1 year on study, and every 12 weeks (+1 week) thereafter to obtain information on subsequent anticancer therapy, and survival status until death, study closure, or withdrawal of consent, whichever occurs first. The study will be closed 5 years after enrollment of the last patient, or when no patients remain in long-term follow-up, whichever occurs first. Additionally, the sponsor may terminate the study at any time.\nMeasures of anticancer activity will be assessed by computed tomography (CT) scans with contrast approximately every 8 weeks (±1 week). After 1 year on study, response assessments will be reduced to every 12 weeks (±1 week). The schedule of response assessments should not be adjusted for dose delays/interruptions or other reasons for changes in the timing of a patient's study activities; timepoints for response assessments should be calculated from Cycle 1 Day 1 during treatment. For patients who cannot receive CT scans with contrast, other protocol-specified imaging methods may be used. Patients must be evaluated using the same imaging method throughout the study for efficacy assessments. CT scans with contrast at the minimum will include the chest, abdomen, and pelvis. Other regions should be scanned if the patient has known or suspected disease in that region. Responses (complete response (CR) or partial response (PR)) will be confirmed with repeat scans 4 weeks (+1 week window) after first documentation of response. The determination of antitumor activity will be based on confirmed objective response assessments as defined by RECIST Version 1.1.\nResponse and progression will be assessed by an independent review facility (IRF). The investigator will make treatment decisions based on site assessments of scans by RECIST.\nThe primary endpoint of this study is the confirmed ORR per IRF. The ORR is defined as the proportion of patients with confirmed CR or PR according to RECIST Version 1.1. The ORR per IRF and its exact 2-sided 95% confidence interval (CI) using the Clopper-Pearson method (Clopper et al., Biometrika (1934); 26(4): 404-413) will be calculated.\nThe primary efficacy endpoint of this study is ORR (confirmed CR or PR per Response Evaluation Criteria in Solid Tumors (RECIST) Version 1.1) as determined by blinded independent central review (BICR) by an independent review facility (IRF). […]", "key": {"[1]": {"settings": "Cohort 2 (N = 89), BICR, additional 3 months follow-up"}, "[2]": {"settings": "Cohort 2 (N = 89), BICR, primary analysis"}, "[3]": {"settings": "Cohort 2, BICR, additional 3 months follow-up"}, "[4]": {"settings": "Cohort 2, BICR, primary analysis"}, "[5]": {"settings": "Cohort 2, Kaplan-Meier, additional 3 months follow-up"}, "[6]": {"settings": "Cohort 2, additional 3 months follow-up"}}}
{"substance": "enfortumab vedotin: Nectin-4 directed ADC: fully human anti-nectin-4 IgG1 kappa antibody (AGS-22C3) conjugated to MMAE via protease-cleavable maleimidocaproyl valine-citrulline linker", "values": [{"measurement": "Best Overall Response: Complete Response (CR)", "setting": "[1]", "result": "20 (22.5) n (%)"}, {"measurement": "Best Overall Response: Not Evaluable (NE)", "setting": "[1]", "result": "8 (9.0) n (%)"}, {"measurement": "Best Overall Response: Partial Response (PR)", "setting": "[1]", "result": "25 (28.1) n (%)"}, {"measurement": "Best Overall Response: Progressive Disease (PD)", "setting": "[1]", "result": "19 (10.1) n (%)"}, {"measurement": "ORR (CR or PR)", "setting": "[1]", "result": "45 (50.6) n (%)"}, {"measurement": "Best Overall Response: Complete Response (CR)", "setting": "[2]", "result": "18 (20.2) n (%)"}, {"measurement": "Best Overall Response: Not Evaluable (NE)", "setting": "[2]", "result": "8 (9.0) n (%)"}, {"measurement": "Best Overall Response: Partial Response (PR)", "setting": "[2]", "result": "28 (31.5) n (%)"}, {"measurement": "Best Overall Response: Progressive Disease (PD)", "setting": "[2]", "result": "8 (9.0) n (%)"}, {"measurement": "ORR (CR or PR)", "setting": "[2]", "result": "46 (51.7) n (%)"}, {"measurement": "Number of responders (confirmed CR or PR)", "setting": "Cohort 2 (N = 89), additional 3 months follow-up", "result": 45}, {"measurement": "95% CI of confirmed ORR", "setting": "[3]", "result": "39.8-61.3%"}, {"measurement": "CR among treated patients", "setting": "[3]", "result": 22, "unit": "%"}, {"measurement": "confirmed ORR", "setting": "[3]", "result": 51, "unit": "%"}, {"measurement": "CR (complete response rate)", "setting": "[4]", "result": 20.2, "unit": "%"}, {"measurement": "ORR", "setting": "[4]", "result": 51.7, "unit": "%"}, {"measurement": "median DOR", "setting": "[4]", "result": 10.9, "unit": "months"}, {"measurement": "median PFS", "setting": "[4]", "result": 5.8, "unit": "months"}, {"measurement": "participants with reduction in tumor measurements", "setting": "[4]", "result": 88, "unit": "%"}, {"measurement": "responders with ongoing response (18 out of 46)", "setting": "[4]", "result": 39, "unit": "%"}, {"measurement": "% Responders without PD or death (95% CI)", "setting": "[5]", "result": "35.8 (14.49, 57.91) %"}, {"measurement": "% Responders without PD or death at 6 months (95% CI)", "setting": "[5]", "result": "67.9 (51.11, 79,95) %"}, {"measurement": "% Responders without PD or death at 12 months (95% CI)", "setting": "[5]", "result": "53.7 (35.51, 68.85) %"}, {"measurement": "Duration of response, 25th percentile", "setting": "[5]", "result": "5.8, − months"}, {"measurement": "Duration of response, Median (95% CI)", "setting": "[5]", "result": "13.8 (6.41, −) months"}, {"measurement": "ORR point estimates for all subgroups", "setting": "[6]", "result": "more than 40%"}, {"measurement": "ORR point estimates for all subgroups", "setting": "Cohort 2, primary analysis", "result": "more than 40%"}, {"measurement": "95% CI of median PFS", "setting": "[6]", "result": "5.0(8.3) months"}, {"measurement": "median DOR", "setting": "[6]", "result": 13.8, "unit": "months"}, {"measurement": "median PFS", "setting": "[6]", "result": 6.7, "unit": "months"}, {"measurement": "median OS", "setting": "Cohort 2, additional 3 months follow-up, median follow-up 16.0 months", "result": 16.1, "unit": "months"}, {"measurement": "ORR", "setting": "Cohort 2, patients who did not respond to prior PD-1/PD-L1 inhibitors, additional 3 months follow-up", "result": 46, "unit": "%"}, {"measurement": "ORR", "setting": "Cohort 2, patients with liver metastasis, additional 3 months follow-up", "result": 43, "unit": "%"}, {"measurement": "ORR", "setting": "Cohort 2, patients with primary tumor sites in the upper tract, additional 3 months follow-up", "result": 58, "unit": "%"}, {"measurement": "median OS", "setting": "Cohort 2, primary analysis, median follow-up 13.4 months", "result": 14.7, "unit": "months"}]}
